Data: patent publication US20190380978A1, “SOLID ORAL DOSAGE FORMS OF 2R,6R-HYDROXYNORKETAMINE OR DERIVATIVES THEREOF” (priority 2016, published 2019)

Columns and labels:
Type in all cases: in vitro ADME
plasma binding proteins = assay: fraction unbound in 100% plasma, dog
Source text: While the risk of DDIs due to displacement from plasma binding proteins (PPBs) is relatively low, it should be considered for drugs which display a high proportion PPB (fraction unbound (fu)<1%).
The fu was investigated for 2R,6R-hydroxynorketamine using a 100% plasma from 4 test species.

metabolite profiling = conditions: hepatocyte data with metabolite profiling
Experimental: 2R,6R-hydroxynorketamine was investigated using an in vitro hepatocyte stability assay, during which 2R,6R-hydroxynorketamine was incubated with cryopreserved hepatocytes from 3 test species.

CYP2B6 = molecular target: T1, CYP2B6 (Homo sapiens, UniProt P20813); assay: CYP inhibition assay, CYP2B6
T1 sequence (P20813 1-491): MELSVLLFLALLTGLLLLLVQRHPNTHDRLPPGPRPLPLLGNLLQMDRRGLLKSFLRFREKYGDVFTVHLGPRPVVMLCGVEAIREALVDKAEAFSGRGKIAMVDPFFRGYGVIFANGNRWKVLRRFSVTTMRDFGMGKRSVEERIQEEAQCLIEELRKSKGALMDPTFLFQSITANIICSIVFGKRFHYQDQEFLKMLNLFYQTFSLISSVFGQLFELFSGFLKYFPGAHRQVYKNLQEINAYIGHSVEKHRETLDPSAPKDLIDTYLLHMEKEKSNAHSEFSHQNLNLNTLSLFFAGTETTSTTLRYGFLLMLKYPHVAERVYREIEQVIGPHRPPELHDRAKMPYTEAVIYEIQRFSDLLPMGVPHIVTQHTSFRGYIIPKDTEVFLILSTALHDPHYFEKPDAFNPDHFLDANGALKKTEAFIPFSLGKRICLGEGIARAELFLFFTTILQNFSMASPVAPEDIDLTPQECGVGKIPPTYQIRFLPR
Source text: Cytochrome P450s (CYPs) are a family of enzymes that play a primary role in the metabolism of a wide variety of drugs. 2R,6R-hydroxynorketamine was investigated for its potential to inhibit the action of 7 key CYP enzymes using an inhibition assay measuring reduction in the formation of metabolites compared to control.

UGT1A1 = molecular target: T2, UGT1A1 (Homo sapiens, UniProt P22309); assay: UGT inhibition assay, UGT1A1
T2 sequence (P22309 26-533): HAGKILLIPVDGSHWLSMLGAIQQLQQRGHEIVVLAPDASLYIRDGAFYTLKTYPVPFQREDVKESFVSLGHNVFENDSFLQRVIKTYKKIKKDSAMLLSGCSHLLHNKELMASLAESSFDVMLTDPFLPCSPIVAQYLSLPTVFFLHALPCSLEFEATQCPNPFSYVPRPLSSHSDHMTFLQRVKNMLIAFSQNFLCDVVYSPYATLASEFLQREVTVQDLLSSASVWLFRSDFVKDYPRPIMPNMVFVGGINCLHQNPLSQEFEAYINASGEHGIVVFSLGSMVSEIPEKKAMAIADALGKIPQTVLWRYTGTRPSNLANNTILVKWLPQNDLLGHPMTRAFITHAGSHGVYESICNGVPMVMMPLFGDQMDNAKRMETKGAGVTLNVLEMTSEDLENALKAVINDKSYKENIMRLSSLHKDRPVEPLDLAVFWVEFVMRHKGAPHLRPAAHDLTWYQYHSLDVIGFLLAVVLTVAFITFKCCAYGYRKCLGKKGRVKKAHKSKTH
Source text: 2R,6R-hydroxynorketamine was therefore investigated for its potential to inhibit this isozyme, along with that of the major UGT isozyme, UGT1A1, using a UGT inhibition assay.

With `N[C@@]1(c2ccccc2Cl)CCC[C@@H](O)C1=O` [2R,6R-hydroxynorketamine] the “plasma protein binding (PPB), words” value (plasma binding proteins) was “low PPB”, the “phase I metabolism by CYP enzymes” value (metabolite profiling) was “does not undergo phase I metabolism” and the “route of metabolism and excretion” value (metabolite profiling) was “glucuronidated and excreted via the renal system”. The “inhibition of CYP2B6” value (CYP2B6) was “did not inhibit”, the inhibition at 0.4 µM (CYP2B6; human, 0.4 μM) was 6.03% and the inhibition at 1 µM (CYP2B6; human, 1 μM) was 10.1%. The inhibition at 4 µM (CYP2B6; human, 4 μM) was 10.6%, the inhibition at 10 µM (CYP2B6; human, 10 μM) was 14.4% and the inhibition at 40 µM (CYP2B6; human, 40 μM) was 14.8%. The inhibition at 100 µM (CYP2B6; human, 100 μM) was 16.7% and the “inhibition of UGT1A1” value (UGT1A1) was “does not inhibit”.
